From patent US20080119463A1, “4-Anilino-3-quinolinecarbonitriles for the treatment of acute myelogenous leukemia (AML)” (Wyeth, priority 2006, published 2008)
Where two headings read alike, the source gives them in different places.

Key:
[1] = tested on: U937 cells; experiment: proliferation assay of human AML cell line U937 (Cell Titer Glo, 3 days); assay type: cell-based; conditions: 3 days growth, Cell Titer Glo luminescence, read-out: IC50 (μM) from proliferation assays of human AML cell lines
Procedure: (§1) These compounds were prepared according to previously published methods (Boschelli, D. H., et. al., J. Med. Chem., 44, 3965 (2001); Boschelli, D. H., et. al., J. Med. Chem., 44, 822 (2001); Boschelli, D. H., et. al., Bioorg. Med. Chem. Lett., 13, 3797 (2003); Boschelli, D. H., et. al., J. Med. Chem., 47, 1599 (2004); and Ye, F. et al., 221st National Meeting of the American Chemical Society, San Diego, Calif. (April, 2001)), hereby incorporated by reference. For this study, 1×10^2 to 1×10^3 cells were plated in 95 μl of growth medium in each well of a 96-well microtiter plate. Compounds were added in 5 μl of medium such that the final concentration of DMSO in the medium was 0.25%. Cells were allowed to grow in a cell culture incubator (37° C.) for 3 days, at which time 100 μl of Promega Cell Titer Glo agent was added. Luminescence (lum) was measured in an Envision microplate reader. Data were processed by first obtaining % inhibition (100−(lum+cpd/lum−cpd); cpd […]). The data were then analyzed with the LSW IC50 calculation model ligand-receptor binding/hyperbolic (y=Bmax/(1+(x/IC50)). The IC50 is the concentration of test compound needed to reduce the total amount of cell proliferation by 50%.
For relevant experiments described above, standard growth medium for a particular cell line was used. For example, the growth medium for U937 cells is: RPMI 1640 supplemented with glutamine, 10% fetal bovine serum, and 50 μg/ml of gentamicin.

[2] = tested on: KG-1a cells; experiment: proliferation assay of human AML cell line KG-1a (Cell Titer Glo, 3 days); assay type: cell-based; conditions: 72 h, 3 days growth, Cell Titer Glo luminescence, read-out: IC50 (μM) from proliferation assays of human AML cell lines
Procedure: as §1
For relevant experiments described above, standard growth medium for a particular cell line was used. […]

Row | IC50 ([1]; Homo sapiens, U-937, 72 h) | Compound | also measured
1 | 5.1 µM | COc1cc(Nc2c(C#N)cnc3cc4cc(OCCN5CCOCC5)c(OC)cc4cc23)c(Cl)cc1Cl [4-(2,4-dichloro-5-methoxy-anilino)-7-methoxy-8-[2-(4-morpholinyl)-ethoxy]-benzo[g]-quinoline-3-carbonitrile] | –
2 | 2.4 µM | COc1cc(Nc2c(C#N)cnc3cc(-c4ccc(CN5CCN(C)CC5)cn4)ccc23)c(Cl)cc1Cl [4-(2,4-dichloro-5-methoxy-anilino)-7-{5-[(4-methyl-piperazin-1-yl)-methyl]-2-pyridinyl]-quinoline-3-carbonitrile] | –
3 | 0.73 µM | COc1cc(Nc2c(C#N)cnc3cc(-c4ccc(CN5CCOCC5)cn4)ccc23)c(Cl)cc1Cl [4-(2,4-dichloro-5-methoxy-anilino)-7-{5-[(4-morpholinyl)-methyl]-2-pyridinyl]-quinoline-3-carbonitrile] | –
4 | 1.2 µM | COc1cc(Nc2c(C#N)cnc3cc4cc(OCCN5CCOCC5)c(OC)cc4cc23)c(Cl)cc1C [4-(2-chloro-4 methyl-5-methoxy-anilino)-7-methoxy-8-[2-(4-morpholinyl)-ethoxy]-benzo[g]-quinoline-3-carbonitrile] | –

More lines, now with the values behind:

Row | Compound | IC50 ([1]; Homo sapiens, U-937, 72 h) | also measured
5 | COc1cc2cc3c(Nc4cc(OC)c(OC)c(OC)c4)c(C#N)cnc3cc2cc1OCCN1CCOCC1 [4-(3,4,5-methoxy-anilino)-7-methoxy-8-[2-(4-morpholinyl)-ethoxy]-benzo[g]-quinoline-3-carbonitrile] | – | IC50 [1]: 2.1 µM
6 | COc1cc(Nc2c(C#N)cnc3cc(OCCCN4CCN(C)CC4)c(OC)cc23)c(Cl)cc1Cl [4-[(2,4-dichloro-5-methoxy-phenyl)amino]-6-methoxy-7-[3-(4-methyl-piperazin-1-yl)-propoxy]-quinoline-3-carbonitrile] | – | IC50 [2]: 1.11 µM
7 | COc1cc(Nc2c(C#N)cnc3cc(-c4coc(CN5CCN(C)CC5)c4)c(OC)cc23)c(Cl)cc1Cl [4-[(2,4-dichloro-5-methoxy-phenyl)amino]-6-methoxy-7-{5-[(4-methyl-piperazin-1-yl)methyl]-3-furyl}-quinoline-3-carbonitrile] | – | IC50 [2]: 0.78 µM
